Patent US5086066A, “Method of providing anxiolytic and antipsychotic treatment with substituted benzamides” (priority 1988, dated 1992)

Columns and labels:
mice = assay: two compartment (dark and light) box test, anxiolytic activity; assay type: in vivo; conditions: for % time in black compartment / Black compartment rearings/5 min / Black compartment transits/5 min / Delay white → black / White compartment rearings/5 min / White compartment transits/5 min: 40 min after administration, S.E.M. <12.6%, n = 5
Experimental: The two compartment box test was conducted in mice to evaluate anxiolytic activity. This test is based on a natural aversion of mice to light. The apparatus used is a box containing two compartments, one of which is dark (labeled "black compartment" in the Table 1) and the other illuminated (labeled "white compartment" in Table 1). The apparatus is designed to allow the animal to choose between staying in either of the two compartments. Under normal conditions, the mice avoid light and usually remain in the dark compartment. Under the influence of an anxiolytic agent, however, exploration of the illustrated compartment predominates. The test consists of placing each mouse in the center of the illuminated compartment and observing the animal's behavior by video system for 5 minutes. The number of exploratory rearings and the number of displacements (the crossing of lines traced on the floor of each compartment constitute "passages") are then recorded for each compartment. An anxiolytic effect induced by a drug, such as diazepam, is characterized by an increase in the number of exploratory rearings and in the number of passages into the illuminated compartment. The compounds of the invention were injected subcutaneously at variable doses, each dose being administered to a group of 5 mice.

rats = assay: hyperactivity induced by injection of amphetamine into the nucleus accumbens (motor activity), antipsychotic activity; assay type: in vivo
Experimental: Tests were conducted to measure the antipsychotic activity of the compounds of the invention. In particular, the hyperactivity induced in rats by the perfusion of amphetamine into the nucleus accumbens was evaluated. This test consists in determining the effect of the compounds of the invention on hyperactivity produced in rats by the injection of amphetamine into the nucleus accumbens. Hyperactivity was induced by injecting 20 μg of amphetamine bilaterally into the nucleus accumbens. The compounds of the invention were administered subcutaneously at doses of 1 mg/kg and 10 mg/kg, 40 minutes before the injection of amphetamine. For each dose of test product, a group of 5 animals was used. A group treated only with amphetamine and a reference group which received only an inert vehicle comprised 10 animals.
Immediately after the injection of amphetamine, the rats were placed in individual cages equipped with photoelectric cells. Motor activity, characterized by the number of shifts from place to place in these cages, was determined by the number of interruptions of a light beam striking these cells. The measurements were made during the 80 minutes following the injection of amphetamine. The results, expressed as the number of shifts from place to place per 10-minute period, are collated in Table 2.

[1] = acute toxicity, median lethal dose (LD50) intravenously; conditions: mouse, in vivo, iv
Description: The compounds of the invention were also subjected to a study of acute toxicity when injected intravenously in male mice and female mice, which enabled the median lethal doses (LD50) to be determined.

With CCN1CCCC1CNC(=O)c1cc(Br)c(NC2=NC(C)CN2)cc1OC (centres unmarked) [Compound 4, N-(1-ethyl-2-pyrrolidinylmethyl)-2-methoxy-4-[(4,5-dihydro-4-methyl-1H-imidazol-2-yl)amino]-5-bromobenzamide] the “% time in black compartment” value (mice; 0.0001 mg/kg s.c.) was 27%, the “Black compartment rearings/5 min” value (mice; 0.0001 mg/kg s.c.) was 19 rearings/5 min and the “Black compartment transits/5 min” value (mice; 0.0001 mg/kg s.c.) was 21 transits/5 min. For the same compound, the “Delay white → black” value (mice; 0.0001 mg/kg s.c.) was 23 s, the “White compartment rearings/5 min” value (mice; 0.0001 mg/kg s.c.) was 73 rearings/5 min and the “White compartment transits/5 min” value (mice; 0.0001 mg/kg s.c.) was 82 transits/5 min. For the same compound, the “% time in black compartment” value (mice; 0.01 mg/kg s.c.) was 31%, the “Black compartment rearings/5 min” value (mice; 0.01 mg/kg s.c.) was 15 rearings/5 min and the “Black compartment transits/5 min” value (mice; 0.01 mg/kg s.c.) was 20 transits/5 min. The “Delay white → black” value (mice; 0.01 mg/kg s.c.) was 22 s, the “White compartment rearings/5 min” value (mice; 0.01 mg/kg s.c.) was 82 rearings/5 min and the “White compartment transits/5 min” value (mice; 0.01 mg/kg s.c.) was 83 transits/5 min. The “% time in black compartment” value (mice; 0.1 mg/kg s.c.) was 34%, the “Black compartment rearings/5 min” value (mice; 0.1 mg/kg s.c.) was 16 rearings/5 min and the “Black compartment transits/5 min” value (mice; 0.1 mg/kg s.c.) was 24 transits/5 min. For the same compound, the “Delay white → black” value (mice; 0.1 mg/kg s.c.) was 38 s, the “White compartment rearings/5 min” value (mice; 0.1 mg/kg s.c.) was 78 rearings/5 min and the “White compartment transits/5 min” value (mice; 0.1 mg/kg s.c.) was 99 transits/5 min. For the same compound, the minimal effective dose (mice; Mus musculus, sc, 40 min, subcutaneous, mice, read-out: dose at and above which anxiolytic activity is manifested) was no less than 0.0001 mg/kg, the Motor activity (rats; 1 mg/kg s.c. 40 min before amphetamine 20 μg, time 10 min) was 34 ± 8 shifts from place to place/10 minutes and the Motor activity (rats; 1 mg/kg s.c. 40 min before amphetamine 20 μg, time 20 min) was 60 ± 13 shifts from place to place/10 minutes. The Motor activity (rats; 1 mg/kg s.c. 40 min before amphetamine 20 μg, time 30 min) was 40 ± 10 shifts from place to place/10 minutes, the Motor activity (rats; 1 mg/kg s.c. 40 min before amphetamine 20 μg, time 40 min) was 38 ± 13 shifts from place to place/10 minutes and the Motor activity (rats; 1 mg/kg s.c. 40 min before amphetamine 20 μg, time 50 min) was 37 ± 10 shifts from place to place/10 minutes. For the same compound, the Motor activity (rats; 1 mg/kg s.c. 40 min before amphetamine 20 μg, time 60 min) was 16 ± 2 shifts from place to place/10 minutes, the Motor activity (rats; 1 mg/kg s.c. 40 min before amphetamine 20 μg, time 70 min) was 8 ± 3 shifts from place to place/10 minutes and the Motor activity (rats; 1 mg/kg s.c. 40 min before amphetamine 20 μg, time 80 min) was 4 ± 2 shifts from place to place/10 minutes. For the same compound, the Motor activity (rats; 10 mg/kg s.c. 40 min before amphetamine 20 μg, time 10 min) was 38 ± 7 shifts from place to place/10 minutes, the Motor activity (rats; 10 mg/kg s.c. 40 min before amphetamine 20 μg, time 20 min) was 8 ± 1.4 shifts from place to place/10 minutes and the Motor activity (rats; 10 mg/kg s.c. 40 min before amphetamine 20 μg, time 30 min) was 9 ± 3 shifts from place to place/10 minutes. For the same compound, the Motor activity (rats; 10 mg/kg s.c. 40 min before amphetamine 20 μg, time 40 min) was 11 ± 1.6 shifts from place to place/10 minutes, the Motor activity (rats; 10 mg/kg s.c. 40 min before amphetamine 20 μg, time 50 min) was 5 ± 1 shifts from place to place/10 minutes and the Motor activity (rats; 10 mg/kg s.c. 40 min before amphetamine 20 μg, time 60 min) was 2 ± 1 shifts from place to place/10 minutes. The LD50 ([1]; female mice) was 18 mg/kg and the LD50 ([1]; male mice) was 15.5 mg/kg.
